Laboratory results taken from PubChem BioAssay AID1963977 (Molecular Pharmacology Branch, DTP, NCI, 2024).
pIC50: −log10 of the molar value. Values joined by “and” are separate entries in the source; they are usually repeats but may differ in a detail not shown here. Equal entries are not always repeated. One block for each compound: values may come before it.

Tested on: 624824-186-R-J3-PDC multicell spheroids, viability
Assay: Anticancer human tumor 624824-186-R-J3-PDC patient-derived colon adenocarcinoma cell line growth inhibition [PI3K]
Details: for viability, T/C: stronger effect = lower value
Procedure, shortened: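 Spheroid viability read-out. Co-cultures contained the tumor line plus HUVEC and human MSCs. Each agent was paired with a PI3K inhibitor (inavolisib, alpelisib, duvelisib, copanlisib) across half-log dilutions starting at clinical Cmax, or at 10 microM when Cmax was unknown.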

[1] = curve of first compound, second compound 0.0316 µM
[2] = curve of first compound, second compound 0.1 µM
[3] = curve of first compound, second compound 0.316 µM
[4] = curve of first compound, second compound 1 µM
[5] = curve of first compound, second compound 3.16 µM
[6] = curve of first compound, second compound 10 µM
[7] = second compound 0.0316 µM, first compound 0.0316 µM
[8] = second compound 0.0316 µM, first compound 0.1 µM
[9] = second compound 0.0316 µM, first compound 0.316 µM
[10] = second compound 0.0316 µM, first compound 1 µM
[11] = second compound 0.0316 µM, first compound 3.16 µM
[12] = second compound 0.0316 µM, first compound 10 µM
[13] = second compound 0.1 µM, first compound 0.0316 µM
[14] = second compound 0.1 µM, first compound 0.1 µM
[15] = second compound 0.1 µM, first compound 0.316 µM
[16] = second compound 0.1 µM, first compound 1 µM
[17] = second compound 0.1 µM, first compound 3.16 µM
[18] = second compound 0.1 µM, first compound 10 µM
[19] = second compound 0.316 µM, first compound 0.0316 µM
[20] = second compound 0.316 µM, first compound 0.1 µM
[21] = second compound 0.316 µM, first compound 0.316 µM
[22] = second compound 0.316 µM, first compound 1 µM
[23] = second compound 0.316 µM, first compound 3.16 µM
[24] = second compound 0.316 µM, first compound 10 µM
[25] = second compound 1 µM, first compound 0.0316 µM
[26] = second compound 1 µM, first compound 0.1 µM
[27] = second compound 1 µM, first compound 0.316 µM
[28] = second compound 1 µM, first compound 1 µM
[29] = second compound 1 µM, first compound 3.16 µM
[30] = second compound 1 µM, first compound 10 µM
[31] = second compound 3.16 µM, first compound 0.0316 µM
[32] = second compound 3.16 µM, first compound 0.1 µM
[33] = second compound 3.16 µM, first compound 0.316 µM
[34] = second compound 3.16 µM, first compound 1 µM
[35] = second compound 3.16 µM, first compound 3.16 µM
[36] = second compound 3.16 µM, first compound 10 µM
[37] = second compound 10 µM, first compound 0.0316 µM
[38] = second compound 10 µM, first compound 0.1 µM
[39] = second compound 10 µM, first compound 0.316 µM
[40] = second compound 10 µM, first compound 1 µM
[41] = second compound 10 µM, first compound 3.16 µM
[42] = second compound 10 µM, first compound 10 µM
[43] = second compound 0.0316 µM, first compound 0.00316 µM
[44] = second compound 0.0316 µM, first compound 0.01 µM
[45] = second compound 0.1 µM, first compound 0.00316 µM
[46] = second compound 0.1 µM, first compound 0.01 µM
[47] = second compound 0.316 µM, first compound 0.00316 µM
[48] = second compound 0.316 µM, first compound 0.01 µM
[49] = second compound 1 µM, first compound 0.00316 µM
[50] = second compound 1 µM, first compound 0.01 µM
[51] = second compound 3.16 µM, first compound 0.00316 µM
[52] = second compound 3.16 µM, first compound 0.01 µM
[53] = second compound 10 µM, first compound 0.00316 µM
[54] = second compound 10 µM, first compound 0.01 µM
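Also: spheroids exposed to agents for seven days before luminescence read.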
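For viability, T/C in this document: luminescent signal used as a stand-in for spheroid viability; percent viability relative to DMSO vehicle control wells taken as 100%.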

SMILES: CNC(=O)c1ccc(N2C(=S)N(c3ccc(C#N)c(C(F)(F)F)c3)C(=O)C2(C)C)cc1F + Cc1nc(NC(=O)N2CCCC2C(N)=O)sc1-c1ccnc(C(C)(C)C(F)(F)F)c1
pIC50 [1]: < 5.00
pIC50 [2]: < 5.00
pIC50 [3]: < 5.00
pIC50 [4]: < 5.00
pIC50 [5]: < 5.00
pIC50 [6]: < 5.00
viability, T/C [7]: 104%
viability, T/C [8]: 94.4%
viability, T/C [9]: 101%
viability, T/C [10]: 102%
viability, T/C [11]: 107%
viability, T/C [12]: 113%
viability, T/C [13]: 96.9%
viability, T/C [14]: 100%
viability, T/C [15]: 109%
viability, T/C [16]: 98.4%
viability, T/C [17]: 104%
viability, T/C [18]: 104%
viability, T/C [19]: 107%
viability, T/C [20]: 101%
viability, T/C [21]: 117%
viability, T/C [22]: 99.1%
viability, T/C [23]: 113%
viability, T/C [24]: 93%
viability, T/C [25]: 100%
viability, T/C [26]: 96.3%
viability, T/C [27]: 105%
viability, T/C [28]: 101%
viability, T/C [29]: 104%
viability, T/C [30]: 95%
viability, T/C [31]: 91.1%
viability, T/C [32]: 89.4%
viability, T/C [33]: 83.9%
viability, T/C [34]: 77.7%
viability, T/C [35]: 88%
viability, T/C [36]: 85.5%
viability, T/C [37]: 74.3%
viability, T/C [38]: 65.3%
viability, T/C [39]: 69.4%
viability, T/C [40]: 67.8%
viability, T/C [41]: 73.8%
viability, T/C [42]: 70.1%

SMILES: C[C@@H](NC(=O)c1ncnc(N)c1Cl)c1ncc(C(=O)Nc2cc(C(F)(F)F)c(Cl)cn2)s1
viability, T/C (compound 0.0316 µM): 103% and 100% and 120%
viability, T/C (compound 0.1 µM): 96.1% and 93.2% (2×)
viability, T/C (compound 0.316 µM): 99.7% and 104% and 102%
viability, T/C (compound 1 µM): 99.9% and 97.9% and 107%
viability, T/C (compound 3.16 µM): 94.9% and 98.1% and 99.8%
viability, T/C (compound 10 µM): 89.5% and 97.3% and 104%
pIC50 (curve of compound): < 5.00

SMILES: C[C@@H](NC(=O)c1ncnc(N)c1Cl)c1ncc(C(=O)Nc2cc(C(F)(F)F)c(Cl)cn2)s1 + CC(Nc1ncnc2nc[nH]c12)c1cc2cccc(Cl)c2c(=O)n1-c1ccccc1
pIC50 [1]: < 5.00
pIC50 [2]: < 5.00
pIC50 [3]: < 5.00
pIC50 [4]: < 5.00
pIC50 [5]: < 5.00
pIC50 [6]: < 5.00
viability, T/C [7]: 115%
viability, T/C [8]: 100%
viability, T/C [9]: 107%
viability, T/C [10]: 100%
viability, T/C [11]: 99.8%
viability, T/C [12]: 94.4%
viability, T/C [13]: 100%
viability, T/C [14]: 101%
viability, T/C [15]: 104%
viability, T/C [16]: 107%
viability, T/C [17]: 101%
viability, T/C [18]: 107%
viability, T/C [19]: 96.8%
viability, T/C [20]: 105%
viability, T/C [21]: 92.5%
viability, T/C [22]: 96.1%
viability, T/C [23]: 98.8%
viability, T/C [24]: 97.6%
viability, T/C [25]: 99.2%
viability, T/C [26]: 94.4%
viability, T/C [27]: 110%
viability, T/C [28]: 92.8%
viability, T/C [29]: 94.8%
viability, T/C [30]: 83%
viability, T/C [31]: 97.1%
viability, T/C [32]: 102%
viability, T/C [33]: 104%
viability, T/C [34]: 94.3%
viability, T/C [35]: 93.8%
viability, T/C [36]: 73.3%
viability, T/C [37]: 100%
viability, T/C [38]: 94.7%
viability, T/C [39]: 96.3%
viability, T/C [40]: 83%
viability, T/C [41]: 82.2%
viability, T/C [42]: 61%

Continued, in another order:

pIC50 [1]: < 7.00
pIC50 [2]: < 7.00
pIC50 [3]: < 7.00
pIC50 [4]: < 7.00
pIC50 [5]: < 7.00
pIC50 [6]: < 7.00
SMILES: Cn1ncnc1[C@H]1c2n[nH]c(=O)c3cc(F)cc(c23)N[C@@H]1c1ccc(F)cc1 + CC(Nc1ncnc2nc[nH]c12)c1cc2cccc(Cl)c2c(=O)n1-c1ccccc1
viability, T/C (second compound 0.0316 µM, first compound 0.000316 µM): 104%
viability, T/C (second compound 0.0316 µM, first compound 0.001 µM): 101%
viability, T/C [43]: 135%
viability, T/C [44]: 104%
viability, T/C [7]: 116%
viability, T/C [8]: 117%
viability, T/C (second compound 0.1 µM, first compound 0.000316 µM): 104%
viability, T/C (second compound 0.1 µM, first compound 0.001 µM): 96.3%
viability, T/C [45]: 107%
viability, T/C [46]: 102%
viability, T/C [13]: 95.9%
viability, T/C [14]: 120%
viability, T/C (second compound 0.316 µM, first compound 0.000316 µM): 99.2%
viability, T/C (second compound 0.316 µM, first compound 0.001 µM): 108%
viability, T/C [47]: 110%
viability, T/C [48]: 106%
viability, T/C [19]: 114%
viability, T/C [20]: 118%
viability, T/C (second compound 1 µM, first compound 0.000316 µM): 98.5%
viability, T/C (second compound 1 µM, first compound 0.001 µM): 105%
viability, T/C [49]: 105%
viability, T/C [50]: 101%
viability, T/C [25]: 111%
viability, T/C [26]: 111%
viability, T/C (second compound 3.16 µM, first compound 0.000316 µM): 109%
viability, T/C (second compound 3.16 µM, first compound 0.001 µM): 107%
viability, T/C [51]: 109%
viability, T/C [52]: 110%
viability, T/C [31]: 104%
viability, T/C [32]: 112%
viability, T/C (second compound 10 µM, first compound 0.000316 µM): 97.8%
viability, T/C (second compound 10 µM, first compound 0.001 µM): 93%
viability, T/C [53]: 101%
viability, T/C [54]: 98.2%
viability, T/C [37]: 90.1%
viability, T/C [38]: 95.1%

pIC50 [1]: < 6.00
pIC50 [2]: < 6.00
pIC50 [3]: < 6.00
pIC50 [4]: < 6.00
pIC50 [5]: 6.12
pIC50 [6]: 7.53
SMILES: CCN1CCN(Cc2ccc(Nc3ncc(F)c(-c4cc(F)c5nc(C)n(C(C)C)c5c4)n3)nc2)CC1 + Cc1nc(NC(=O)N2CCCC2C(N)=O)sc1-c1ccnc(C(C)(C)C(F)(F)F)c1
viability, T/C [43]: 106%
viability, T/C [44]: 99.3%
viability, T/C [7]: 106%
viability, T/C [8]: 108%
viability, T/C [9]: 100%
viability, T/C [10]: 94.2%
viability, T/C [45]: 106%
viability, T/C [46]: 109%
viability, T/C [13]: 112%
viability, T/C [14]: 107%
viability, T/C [15]: 97.5%
viability, T/C [16]: 89.6%
viability, T/C [47]: 102%
viability, T/C [48]: 116%
viability, T/C [19]: 97.4%
viability, T/C [20]: 94.6%
viability, T/C [21]: 88.1%
viability, T/C [22]: 73.1%
viability, T/C [49]: 101%
viability, T/C [50]: 105%
viability, T/C [25]: 98.1%
viability, T/C [26]: 81.6%
viability, T/C [27]: 62.9%
viability, T/C [28]: 58.3%
viability, T/C [51]: 85.3%
viability, T/C [52]: 92%
viability, T/C [31]: 77.8%
viability, T/C [32]: 57%
viability, T/C [33]: 47.9%
viability, T/C [34]: 51.6%
viability, T/C [53]: 64.6%
viability, T/C [54]: 59.6%
viability, T/C [37]: 50.4%
viability, T/C [38]: 41.5%
viability, T/C [39]: 36.6%
viability, T/C [40]: 48.6%
